Here are results for 6 compounds from paper PMC9227171 (Life, 2022).

Experiment [1] deals with protein synthesis in rabbit reticulocyte lysates. In words: Inhibition of protein synthesis in rabbit reticulocyte lysates (luciferase mRNA, luminescence). The conditions noted are these: for EC50: luciferase mRNA, 30 °C, 90 min, read-out: EC50 (50% inhibitory concentration); for impact on protein synthesis: concentration range extending to 50 μM; for inhibition of translation: at 100 μM. Format: biochemical. The method, then:
The dose–response change in chemoluminescense monitored in the presence of various concentrations of investigational drugs following addition of luciferin allows comparison across compounds.
Assay conditions were employed as recommended by the manufacturer. In summary, reactions (20 μL) contained 80% TNT Quick master mix, 20 µM methionine, and 40 ng/µL luciferase RNA (Promega; L4561) at the indicated concentration of test chemicals. Samples were incubated at 30 °C for 90 min and diluted ten-fold with PBS. An aliquot (2 μL) was mixed with 20 μL of luciferase assay reagent (Promega; E1500) and luminescence was measured with a Turner Designs Model TD-20/20 Luminometer. Depending on the compound evaluated, experiments were repeated two-four times with good agreement between the runs. […] The results are reported as average values including the mean and standard deviation wherever applicable.

Experiment [2] deals with protein synthesis in Vero E6 cells. In words: Protein synthesis in cultured cells: puromycin pulse labeling and immunoblotting. In kind it is cell-based, African green monkey. The method, then: Prior to the experiment, Vero E6 cells were seeded at 30,000 cells per cm^2 in 6-well plates in 5% FBS-EMEM. […] Control experiments were conducted in the absence and presence of cycloheximide (1–150 μM) or DMSO. Following incubation with puromycin for 10 min, the medium was quickly removed and cells washed with warm PBS and allowed to recover in drug-free 5% FBS-EMEM for 30 min. Cell pellets collected by trypsinization and centrifugation were stored at −80 °C while awaiting protein preparation and immunoblotting as described below.
Cell lysates were prepared in RIPA (radio-immunoprecipitation) buffer (Sigma; R0278) containing protease inhibitors (Sigma; P8340). Protein concentrations were determined via the Pierce^TM bicinconinic acid (BCA) assay (Thermo Fisher Scientific, Waltham, MA, USA) using bovine serum albumin as a standard. All procedures were performed in accordance with protocols recommended by the manufacturers. For immunoblotting, 8 μg of protein was combined with Laemmli buffer containing 10% β-mercaptoethanol, heated at 95 °C for 5 min and loaded on 8–16% Mini-PROTEAN® TGX™ precast protein gels. Samples were resolved via electrophoresis in Tris-Gly-SDS buffer and transferred to nitrocellulose membranes in Tris-Gly buffer containing 20% methanol at 4–6 V/cm^2 for one hour. Membranes were blocked in 10 mM sodium phosphate buffer containing 150 mM NaCl (pH 7.8), 5% milk and 0.1% TWEEN20 (PBST) at room temperature for at least one hour, then incubated overnight with primary anti-puromycin antibodies (TFS; MABE343 mouse monoclonal antibodies clone 12D10; 1:25,000) at 4 °C. […]
For β-actin staining, the same membranes used for puromycin immunostaining were washed four times for five min with 20 mM Tris-buffered saline containing 500 mM sodium chloride (pH 7.5) and 0.1% TWEEN20 (TBST) and stripped by two rounds of 20- and 10-min washes at 50 °C in glycine buffer (pH 2.2) containing 0.1% SDS (w/v) and 1% TWEEN20. […] The results were quantified with Image J 1.52a software using β-actin staining for each sample as an internal reference.

Another experiment has as its system HIV-1. The conditions noted are these: among low molecular weight ATA components ref 39, 43; cited from earlier work.
Experiment [3] deals with SARS-CoV-2 RdRp (nsp12/7/8 complex) (Severe acute respiratory syndrome coronavirus 2, UniProt P0DTD1). In words: Inhibition of SARS-CoV-2 RdRp active complex (RNA extension assay). Format: biochemical. The conditions noted are these: RdRp-mediated RNA replication, 37 °C, 60 min, 1 μM RdRp complex.
In experiment [4] the target is T1, human serum albumin (HSA) (Homo sapiens, UniProt P02768).
T1 construct: purchased Millipore Sigma A1887
In words: HSA binding energetics via isothermal titration calorimetry (ITC). The conditions noted are these: for TΔS / ΔG / ΔH: pH 7.4. The protocol: The resultant heats are integrated to yield a binding profile (bottom panel) that is fit via nonlinear least squares analysis to a single site model (red line).
The protein was prepared as described in Section 5.1 and dialyzed exhaustively against a buffer comprised of 10 mM sodium phosphate adjusted to pH 7.4. […] Each ITC experiment consisted of thirty consecutive 10.0 µL injections during which the reaction heat is monitored and integrated over a 5.0 min period under continuous stirring. The experimental protocol has been designed to ensure that there is a tenfold excess of ligand in the titration syringe relative to standard protein concentration in the sample cell. The resultant binding isotherms are generated by recording the integrated reaction heats normalized for ligand concentration versus the HSA:ligand ratio. A nonlinear least squares fit of the resultant profile to a single site binding model yields thermodynamic parameters for the HSA–ligand complex including the affinity (Ka), Gibbs free energy (ΔG), enthalpy (ΔH), and entropy (ΔS).

Another experiment concerns hCoV-OC43. In words: Antiviral properties in hCoV-OC43 and VERO E6 cells (data not shown). The conditions noted are these: concentrations ≥200 μM. In kind it is cell-based.
The target in the next experiment is yeast 80S ribosomes. In words: Ligand–ribosome binding via fluorescence anisotropy.
The mark [5] stands for this setting: ITC, 25.0 °C, listed as Dichlorohexamer.

“And” between values parts separate entries of the source, which are not always exact repeats. Identical values can stand only once.

T1 sequence (P02768 25-609): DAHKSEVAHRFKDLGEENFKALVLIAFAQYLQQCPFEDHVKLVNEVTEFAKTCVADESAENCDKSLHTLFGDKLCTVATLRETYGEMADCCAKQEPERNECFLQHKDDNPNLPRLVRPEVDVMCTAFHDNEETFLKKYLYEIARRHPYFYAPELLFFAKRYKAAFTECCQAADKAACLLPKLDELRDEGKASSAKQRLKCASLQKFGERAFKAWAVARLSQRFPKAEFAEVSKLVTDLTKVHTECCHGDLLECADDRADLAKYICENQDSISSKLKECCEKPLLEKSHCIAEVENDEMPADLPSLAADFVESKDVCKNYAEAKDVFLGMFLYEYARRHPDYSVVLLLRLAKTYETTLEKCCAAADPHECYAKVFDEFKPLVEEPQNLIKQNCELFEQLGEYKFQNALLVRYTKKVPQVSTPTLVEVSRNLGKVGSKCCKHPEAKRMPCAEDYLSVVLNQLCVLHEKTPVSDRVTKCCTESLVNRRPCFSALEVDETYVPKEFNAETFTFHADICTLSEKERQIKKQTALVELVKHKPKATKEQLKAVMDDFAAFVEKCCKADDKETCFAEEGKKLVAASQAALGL

`C[C@@H]1C[C@@H]([C@H](O)CC2CC(=O)NC(=O)C2)C(=O)[C@@H](C)C1` [Cycloheximide]: the EC50 in experiment [1] came to 0.106 µM. The activity at 150 µM in experiment [2] (Chlorocebus sabaeus, Vero C1008, 150 uM, read-out: % activity (anti-puromycin/b-actin densitometry)) was -3.99%. In addition, the activity at 300 µM in experiment [2] (Chlorocebus sabaeus, Vero C1008, 300 uM, read-out: % activity (anti-puromycin/b-actin densitometry)) is -3.95%. Moreover, the “concentration that inhibits protein synthesis” value in experiment [2] (puromycin labeling) was 1 µM.
Consider `O=C(O)c1cc(Cc2cc(C(c3ccc(O)c(C(=O)O)c3)c3ccc(O)c(C(=O)O)c3)cc(C(=O)O)c2O)ccc1O` [compound 2], for which, in the experiment on HIV-1, the “activity against HIV-1” value is “most active”.
Regarding `O=C(O)c1cc(Cc2cc(Cc3ccc(O)c(C(=O)O)c3)c(O)c(C(=O)O)c2)ccc1O` [compound 3], the “activity against HIV-1” value with HIV-1 was “most active”.
As for `O=C(O)c1cc(Cc2cc(Cc3cc(Cc4cc(Cl)c(O)c(C(=O)O)c4)c(O)c(C(=O)O)c3)cc(C(=O)O)c2O)cc(Cl)c1O` [compound 8], the “impact on protein synthesis” value in experiment [1] is recorded as “did not impact protein synthesis”. Further, in experiment [3], the IC50 was 163 µM and ~163 µM.
On to `O=C(O)c1cc(Cc2cc(Cc3cc(Cc4ccc(O)c(C(=O)O)c4)c(O)c(C(=O)O)c3)cc(C(=O)O)c2O)ccc1O` [compound 9], for which the “impact on protein synthesis” value in experiment [1] is on record as “did not impact protein synthesis”. In addition, the IC50 in experiment [3] is 514 µM and ~514 µM.
In the case of `O=C(O)c1cc(Cc2cc(Cc3cc(Cc4cc(Cc5cc(Cc6cc(Cl)c(O)c(C(=O)O)c6)c(O)c(C(=O)O)c5)c(O)c(C(=O)O)c4)cc(C(=O)O)c3O)cc(C(=O)O)c2O)cc(Cl)c1O` [compound 11], the dissociation constant (Kd) in experiment [4] (ITC, 25.0 °C, 10 mM sodium phosphate pH 7.4) was 1 ± 0.1 µM; at yeast 80S ribosomes (25 °C, fluorescence anisotropy), 0.21 ± 0.02 µM; on yeast 80S ribosomes (purified yeast ribosomes, discussion value), about 0.2 µM. Further, the “Ka × 10^5” value in experiment [4] (ITC, 25.0 °C, 10 mM sodium phosphate pH 7.4, single site model) was 9.9 ± 0.5 10^5 M^−1. Further, the TΔS in experiment [4] (ITC, 25.0 °C) is -7.1 kcal/mol; in experiment [4] (setting [5]), -7.1 ± 0.2 kcal/mol. Also, the ΔG in experiment [4] (ITC, 25.0 °C) was -8.0 kcal/mol; in experiment [4] (setting [5]) it was -8.0 ± 0.2 kcal/mol. Besides, the ΔH in experiment [4] (ITC, 25.0 °C) was -15.1 kcal/mol; in experiment [4] (setting [5]) it was -15.1 ± 0.2 kcal/mol. Besides, the stoichiometry n in experiment [4] (ITC, per monomeric unit of ATA (Mw 422.34) or per dichlorohexamer (Mw 956)) turned out to be 1.0 ±0.0. Moreover, the ΔΔG in experiment [4] (chlorinated hexamer versus heterogeneous polymeric ATA, HSA binding) was 0.4 kcal/mol. For the same compound, the inhibition of translation was about 100% in experiment [1] and “completely inhibited translation” in experiment [1] (signal comparable to background). The EC50 in experiment [1] was 28.1 µM. Moreover, the IC50 in experiment [3] came to 0.108 µM. The antiviral properties result with hCoV-OC43 is listed as “modest activity”. The “affinity (double reciprocal plot)” value in the experiment with yeast 80S ribosomes (25 °C, ligand 1 μM, excitation/emission 305/420 nm) is listed as 4.8 × 10 ^6 M^−1.
